Assay results reported in patent US12702131B2, “Synergistic agrochemical combination” (UPL LIMITED, priority 2020, dated 2026).

What was measured:
Format in all cases: in vivo
Details in all cases: Glufosinate 3000 ml/ha, Triacontanol 500 ml/ha
[1] = tested on: PANRP (Brachiaria reptans); assay: Field trial, weed control in papaya orchard, PANRP
Procedure: (§1) Field trials were carried out to test the synergy of the combination Glufosinate and Triacontanol. The field trials were carried out at Murari, A.P. The percentage efficacy was calculated after 15, 25 and 30 days of applications. The application was in the open space among the plants in a Papaya orchard and the results are recorded in the table below:—

[2] = tested on: TRTPO (Trianthema portulacastrum); assay: Field trial, weed control in papaya orchard, TRTPO
Procedure: as §1
(§2) TRTPO—Trianthema portulacastrum, COMBE—Commelina benghalensis, AMASP—Amaranthus spinosus, PTNHY—Parthenium hysterophorus, 1CRGG—Corchorus, DIMRE—Dinebra retroflexa, CYNDH—Cynodon dactylon, CYPRO—Cyperus rotundus, EPHHL—Euphorbia heterophylla

[3] = tested on: COMBE (Commelina benghalensis); assay: Field trial, weed control in papaya orchard, COMBE
Procedure: as §1, §2

[4] = tested on: AMASP (Amaranthus spinosus); assay: Field trial, weed control in papaya orchard, AMASP
Procedure: as §1, §2

[5] = tested on: PTNHY (Parthenium hysterophorus); assay: Field trial, weed control in papaya orchard, PTNHY
Procedure: as §1, §2

[6] = tested on: 1CRGG (Corchorus); assay: Field trial, weed control in papaya orchard, 1CRGG
Procedure: as §1, §2

[7] = tested on: DIMRE (Dinebra retroflexa); assay: Field trial, weed control in papaya orchard, DIMRE
Procedure: as §1, §2

[8] = tested on: CYNDH (Cynodon dactylon); assay: Field trial, weed control in papaya orchard, CYNDH
Procedure: as §1, §2

[9] = tested on: CYPRO (Cyperus rotundus); assay: Field trial, weed control in papaya orchard, CYPRO
Procedure: as §1, §2

[10] = tested on: EPHHL (Euphorbia heterophylla); assay: Field trial, weed control in papaya orchard, EPHHL
Procedure: as §1, §2

CP(=O)(O)CCC(N)C(=O)O (centres unmarked) [Glufosinate]
% Weed control at 15 DAA ([1]; 15 DAA): 85%
% Weed control at 25 DAA ([1]; 25 DAA): 65%
% Weed control at 30 DAA TRTPO [2]: 81%
% Weed control at 30 DAA COMBE [3]: 47%
% Weed control at 30 DAA AMASP [4]: 73%
% Weed control at 30 DAA PTNHY [5]: 96%
% Weed control at 30 DAA 1CRGG [6]: 69%
% Weed control at 30 DAA DIMRE [7]: 62%
% Weed control at 30 DAA CYNDH [8]: 54%
% Weed control at 30 DAA CYPRO [9]: 11%
% Weed control at 30 DAA EPHHL [10]: 80%
